Reference: BindingDB's records for doi:10.7270/Q27P8WT7 (Srmlsc, 2008)

Conditions: inactive by the depositor's call

EC50 [µM]	Compound
78.8	Cc1ccc(OCc2nnc(-c3ccccn3)[nH]2)cc1
55	COc1ccc(C2=NOC(CN3C(=O)c4ccccc4S3(=O)=O)C2)cc1 (stereo not drawn)
55.6	Nc1ccccc1C(=O)/C=C/c1ccc2c(c1)OCO2
41.6	COc1ccc2c3c(cccc13)C(=O)N(O)C2=O
35.6	Fc1ccc(NC(=S)Nc2nccs2)cc1 [1-(4-fluorophenyl)-3-(1,3-thiazol-2-yl)thiourea]
62.3	Brc1ccccc1OCCCn1cnc2ccccc21 [1-[3-(2-bromanylphenoxy)propyl]benzimidazole]
39.6	CCCCNC(=S)Nc1ccc(-c2nc3ccc(C)cc3s2)cc1 [1-butyl-3-[4-(6-methyl-1,3-benzothiazol-2-yl)phenyl]thiourea]
41.7	O=C(Nc1ccccc1)c1ccc2c(c1)OCCO2 [2,3-Dihydro-benzo[1,4]dioxine-6-carboxylic acid phenylamide]
84.7	O=C1CCCc2nc(N3CCc4ccccc43)ncc21 [2-(2,3-dihydroindol-1-yl)-7,8-dihydro-6H-quinazolin-5-one]
39.1	NC(=NOC(=O)COc1ccccc1Cl)c1ccccn1 [2-(2-chlorophenoxy)acetic acid [(Z)-[amino(2-pyridinyl)methylidene]amino] ester]
36.5	NC(=O)Cc1ccc2sc(-c3ccccc3)nc2c1 [2-(2-phenyl-1,3-benzothiazol-5-yl)acetamide]
31.8	Cc1ccc2sc(NC(=O)CSc3nc(C)cc(C)c3C#N)nc2c1 [2-(3-Cyano-4,6-dimethyl-pyridin-2-ylsulfanyl)-N-(5-methyl-benzothiazol-2-yl)-acetamide]
56.4	Cc1ccn2c(c1)nc(=S)n2C(=O)c1ccco1 [2-furanyl-(7-methyl-2-sulfanylidene-[1,2,4]triazolo[1,5-a]pyridin-3-yl)methanone]
47.2	Cc1ccnc(NC(=O)c2cc3ccccc3oc2=O)c1 [2-keto-N-(4-methyl-2-pyridyl)chromene-3-carboxamide]
69.5	O=c1oc(-c2ccccc2)nc2sc3c(c12)CCCC3 [2-phenyl-5,6,7,8-tetrahydro-4H-[1]benzothieno[2,3-d][1,3]oxazin-4-one]
38.9	COc1nc(-c2ccccc2)nnc1-c1ccccc1 [3,6-diphenyl-1,2,4-triazin-5-yl methyl ether]
45.6	COc1ccc(C2=Nc3ccccc3OC2)cc1 [3-(4-methoxyphenyl)-2H-1,4-benzoxazine]
45.1	c1ccc(CSc2ccc(-c3ccccn3)nn2)cc1 [3-(benzylthio)-6-(2-pyridyl)pyridazine]
47.8	CCOc1ccc(C(=O)Nc2cccc(C(=O)O)c2)cc1Cl [3-[(3-chloranyl-4-ethoxy-phenyl)carbonylamino]benzoic acid]

EC50 [µM]	Compound
35.2	CCn1cnc2sc(-c3ccccc3)cc2c1=O [3-ethyl-6-phenyl-4-thieno[2,3-d]pyrimidinone]
50.2	O=C(Nc1ccc2c(c1)CCC2)c1cccc(F)c1 [3-fluoro-N-indan-5-yl-benzamide]
35.5	Nc1nc(-c2ccc3ccccc3c2)cs1 [4-(2-naphthalenyl)-2-thiazolamine]
46.2	Nc1c(-c2ccccc2)cnn1-c1ccc(C(=O)O)cc1 [4-(5-amino-4-phenyl-1-pyrazolyl)benzoic acid]
46.2	CCCCSc1ncc(C(=O)OCC)c(N)n1 [4-Amino-2-butylsulfanyl-pyrimidine-5-carboxylic acid ethyl ester]
64.2	COc1ccc(-c2cn3cc(C(F)(F)F)cc(Cl)c3n2)cc1 [4-[8-chloro-6-(trifluoromethyl)imidazo[1,2-a]pyridin-2-yl]phenyl methyl ether]
36.7	CCOC(=O)c1nn(-c2ccc(C)cc2)cc1C(=O)c1ccccc1 [4-benzoyl-1-(4-methylphenyl)-3-pyrazolecarboxylic acid ethyl ester]
46.5	COc1ccc(C(=O)Oc2c(CN3CCOCC3)cc(Cl)c3cccnc23)cc1 [4-methoxybenzoic acid [5-chloro-7-(4-morpholinylmethyl)-8-quinolinyl] ester]
53.8	Oc1ccc(CN2CCCCC2)c2cccnc12 [5-(1-piperidinylmethyl)-8-quinolinol]
80.1	Cc1cccc(-c2cc(N)n(-c3ccccc3)n2)c1 [5-(3-methylphenyl)-2-phenyl-3-pyrazolamine]
69.3	Cn1nnc(-c2ccc(OCc3ccccc3F)cc2)n1 [5-[4-(2-fluorobenzyl)oxyphenyl]-2-methyl-tetrazole]
69.9	COc1ccc2c(c1OC)C(=O)N(c1cccc(C(F)(F)F)c1)C2 [6,7-dimethoxy-2-[3-(trifluoromethyl)phenyl]-3H-isoindol-1-one]
39.9	CCCNC(=O)c1noc2c1CCc1cc(OC)ccc1-2 [7-methoxy-N-propyl-4,5-dihydrobenz[g]indoxazene-3-carboxamide]
49.5	COc1ccc(OC(=O)c2cnn(-c3ccccc3)c2C)cc1 [(4-methoxyphenyl) 5-methyl-1-phenyl-pyrazole-4-carboxylate]
33.6	Cc1ccc(NC(=O)c2noc3c2CCCCC3)cc1 [MLS000087401]
42.9	CN(C)/C=N/c1ccc2nn(-c3ccccc3)nc2c1 [MLS000105162]
89.6	S=C(c1ccc(-c2cccc(Cl)c2)o1)N1CCOCC1 [MLS000107692]
84.4	Cc1cccc(NC(=O)c2ccc3ccccc3n2)c1C [MLS000569762]
46.4	CC(C)=CC(=O)Nc1ccc(Br)cc1 [N-(4-bromophenyl)-3-methylbut-2-enamide]
